The values below come from ChEMBL document CHEMBL5137132, “Ulleungdolin, a Polyketide-Peptide Hybrid Bearing a 2,4-Di-O-methyl-β-d-antiarose from Streptomyces sp. 13F051 Co-cultured with Leohumicola minima 15S071” (2022).

The structures appear in SMILES notation.

Test [1] deals with MDA-MB-231. Kind of test: Anti-migration activity against human MDA-MB-231 cells assessed as inhibition of cell migration at 10 uM incubated for 18 hrs by wound healing assay. The class given is functional.
The subject of test [2] is MDA-MB-231. As to the kind of experiment: Anti-migration activity against human MDA-MB-231 cells assessed as inhibition of cell migration at 25 uM incubated for 18 hrs by wound healing assay. It counts as functional.

For `CO[C@@H]1[C@@H](O)[C@@H](OC)[C@H](Oc2cccc3c2C(=O)N([C@@]2(C(=O)N[C@H](C(=O)N[C@H](C(=O)O)c4ccc(O)cc4)[C@H](O)CC(N)=O)C[C@@H]2C)[C@H]3CCCCCCCC(=O)O)O[C@@H]1C`, the inhibition at 10 µM in test [1] worked out at 42%. In test [2], the inhibition at 25 µM is 100%.

Broadly, the inhibition is the change of the read-out against control, counted positive when it falls.
